The test addresses human PCSK9 (Homo sapiens, UniProt Q8NBP7). The experiment in a line: PCSK9 ligand binding TR-FRET assay (interference with binding of human PCSK9 to human LDLR). The settings on record: for Max % inhibition: PCSK9 FRET assay, efficacy (Amax), 100% = 1 uM unlabeled human PCSK9, 0% = DMSO; for IC50: TR-FRET, human PCSK9 Alexa Fluor 647 / human LDLR extracellular domain-Europium Kryptate, read-out: PCSK9 FRET Assay IC50. Summed up:
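Threefold compound dilutions were pre-incubated 30 min with PCSK9, after which 4 nM Europium Kryptate-tagged human LDLR ectodomain was added for a further 2 h.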
A general note: Time-resolved FRET reads energy transfer from a long-lived donor to a nearby acceptor.

Our source for the Max % inhibition and IC50 values is patent publication US20230089867A1, “CYCLIC PENTAMER COMPOUNDS AS PROPROTEIN CONVERTASE SUBTILISIN/KEXIN TYPE 9 (PCSK9) INHIBITORS FOR THE TREATMENT OF METABOLIC DISORDER” (Novartis AG, priority 2018, published 2023).

human PCSK9, sequence (Q8NBP7 153-692): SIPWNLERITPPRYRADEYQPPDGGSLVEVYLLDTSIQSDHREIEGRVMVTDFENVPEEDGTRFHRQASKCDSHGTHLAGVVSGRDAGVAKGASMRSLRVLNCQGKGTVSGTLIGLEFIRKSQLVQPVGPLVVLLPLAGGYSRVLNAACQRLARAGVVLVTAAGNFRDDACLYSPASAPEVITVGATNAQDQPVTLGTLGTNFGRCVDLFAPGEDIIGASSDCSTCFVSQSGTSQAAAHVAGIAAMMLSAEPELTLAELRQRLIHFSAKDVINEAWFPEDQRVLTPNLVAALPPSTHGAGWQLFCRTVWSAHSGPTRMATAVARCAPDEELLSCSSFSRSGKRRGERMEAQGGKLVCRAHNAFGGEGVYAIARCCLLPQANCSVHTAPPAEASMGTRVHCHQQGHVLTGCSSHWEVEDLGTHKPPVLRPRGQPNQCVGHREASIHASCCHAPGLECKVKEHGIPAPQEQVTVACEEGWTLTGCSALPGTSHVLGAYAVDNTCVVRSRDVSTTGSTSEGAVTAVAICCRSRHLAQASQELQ
human PCSK9, sequence (Q8NBP7 31-152 partner limits assumed): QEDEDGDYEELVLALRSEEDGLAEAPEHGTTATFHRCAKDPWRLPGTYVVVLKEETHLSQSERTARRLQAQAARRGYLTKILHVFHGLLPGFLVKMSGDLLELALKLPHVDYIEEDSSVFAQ

Regarding `C[C@H]1CNC(=O)C[C@H](Cc2ccc(Cl)cc2)N(C)C(=O)[C@H](CC(=O)N(C)C)NC(=O)[C@H](C)N(Cc2ccc(Cl)cc2Oc2ccc(-c3cnc(CN(C)C)n3C)cc2)C(=O)C[C@@H](Cc2ccccc2)C(=O)N1C` [Compound 160, 2-((2S,5S,8S,13S,16R)-16-benzyl-1-(4-chloro-2-(4-(2-((dimethylamino)methyl)-1-methyl-1H-imidazol-5-yl)phenoxy)benzyl)-8-(4-chlorobenzyl)-2,7,13,14-tetramethyl-3,6,10,15,18-pentaoxo-1,4,7,11,14-pentaazacyclooctadecan-5-yl)-N,N-dimethylacetamide], the Max % inhibition was 91.45% and the IC50 (commonly the concentration that gives 50% inhibition) was 7.6 nM.
As to `COC[C@@H]1NC(=O)[C@H](C)N(Cc2ccc(Cl)cc2Oc2ccc(-c3cnc(CN(C)C)n3C)cc2)C(=O)C[C@@H](C)C(=O)N(C)[C@@H](C)CNC(=O)C[C@H](Cc2ccc(Cl)cc2)N(C)C1=O` [Compound 161, (2S,5S,8S,13S,16R)-1-(4-chloro-2-(4-(2-((dimethylamino)methyl)-1-methyl-1H-imidazol-5-yl)phenoxy)benzyl)-8-(4-chlorobenzyl)-5-(methoxymethyl)-2,7,13,14,16-pentamethyl-1,4,7,11,14-pentaazacyclooctadecane-3,6,10,15,18-pentaone], the Max % inhibition worked out at 92.62% and the IC50 was determined as 14.7 nM.
The matching figures for `COC[C@@H]1NC(=O)[C@H](C)N(Cc2ccc(Cl)cc2Oc2ccc(-c3cnc4n3CCN(C(=O)[C@H]3CCOC3)C4)cc2)C(=O)C[C@@H](Cc2ccccc2)C(=O)N(C)[C@@H](C)CNC(=O)C[C@H](Cc2ccc(Cl)cc2)N(C)C1=O` [Compound 162, (2S,5S,8S,13S,16R)-16-benzyl-1-(4-chloro-2-(4-(7-((S)-tetrahydrofuran-3-carbonyl)-5,6,7,8-tetrahydroimidazo[1,2-a]pyrazin-3-yl)phenoxy)benzyl)-8-(4-chlorobenzyl)-5-(methoxymethyl)-2,7,13,14-tetramethyl-1,4,7,11,14-pentaazacyclooctadecane-3,6,10,15,18-pentaone]: 91.41% and 2.9 nM.
The corresponding values for `COC[C@@H]1NC(=O)[C@H](C)N(Cc2ccc(Cl)cc2Oc2ccc(-n3cnc(C(=O)NC(C)C)c3C)cc2)C(=O)C[C@@H](Cc2ccccc2)C(=O)N(C)[C@@H](C)CNC(=O)C[C@H](Cc2ccc(Cl)cc2)N(C)C1=O` [Compound 163, 1-(4-(2-(((2S,5S,8S,13S,16R)-16-benzyl-8-(4-chlorobenzyl)-5-(methoxymethyl)-2,7,13,14-tetramethyl-3,6,10,15,18-pentaoxo-1,4,7,11,14-pentaazacyclooctadecan-1-yl)methyl)-5-chlorophenoxy)phenyl)-N-isopropyl-5-methyl-1H-imidazole-4-carboxamide] are 84.60% and 135 nM.
The corresponding values for `C[C@@H]1CC(=O)N(Cc2ccc(Cl)cc2Oc2ccc(-c3cnc(CN(C)C)n3C)cc2)[C@@H](C)C(=O)N[C@@H](CO)C(=O)N(C)[C@@H](Cc2ccc(Cl)cc2)CC(=O)N[C@H]2CCCC[C@@H]2N(C)C1=O` [Compound 164, (4S,7S,10S,14R,16aS,20aS)-11-(4-chloro-2-(4-(2-((dimethylamino)methyl)-1-methyl-1H-imidazol-5-yl)phenoxy)benzyl)-4-(4-chlorobenzyl)-7-(hydroxymethyl)-5,10,14,16-tetramethylhexadecahydrobenzo[l][1,4,7,11,14]pentaazacyclooctadecine-2,6,9,12,15(3H)-pentaone] are 80.18% and 3.6 nM.
In the case of `COC[C@@H]1NC(=O)[C@H](C)N(Cc2ccc(Cl)cc2Oc2ccc(-c3cnc(CN4CCCC4)n3C)cc2)C(=O)C[C@@H](Cc2ccc(F)c(F)c2)C(=O)N(C)[C@@H](C)CNC(=O)C[C@H](Cc2ccc(Cl)cc2)N(C)C1=O` [Compound 165, (2S,5S,8S,13S,16R)-1-(4-chloro-2-(4-(1-methyl-2-(pyrrolidin-1-ylmethyl)-1H-imidazol-5-yl)phenoxy)benzyl)-8-(4-chlorobenzyl)-16-(3,4-difluorobenzyl)-5-(methoxymethyl)-2,7,13,14-tetramethyl-1,4,7,11,14-pentaazacyclooctadecane-3,6,10,15,18-pentaone], the Max % inhibition is 92.29% and the IC50 came out at 5.6 nM.
As to `COC[C@@H]1NC(=O)[C@H](C)N(Cc2c(F)ccc(F)c2Oc2ccc(-c3cnc(CN(C)C)n3C)cc2)C(=O)C[C@@H](Cc2ccccc2)C(=O)N(C)[C@@H](C)CNC(=O)C[C@H](Cc2ccc(Cl)cc2)N(C)C1=O` [Compound 166, (2S,5S,8S,13S,16R)-16-benzyl-8-(4-chlorobenzyl)-1-(2-(4-(2-((dimethylamino)methyl)-1-methyl-1H-imidazol-5-yl)phenoxy)-3,6-difluorobenzyl)-5-(methoxymethyl)-2,7,13,14-tetramethyl-1,4,7,11,14-pentaazacyclooctadecane-3,6,10,15,18-pentaone], the Max % inhibition is given as 96.70% and the IC50 is 4.3 nM.
Regarding `COC[C@@H]1NC(=O)[C@H](C)N(Cc2ccc(Cl)cc2Oc2ccc(-c3cnc(C(C)O)n3C)cc2)C(=O)C[C@@H](Cc2ccccc2)C(=O)N(C)[C@@H](C)CNC(=O)C[C@H](Cc2ccc(Cl)cc2)N(C)C1=O` (stereo partly drawn) [Compound 167, (2S,5S,8S,13S,16R)-16-benzyl-1-(4-chloro-2-(4-(2-(1-hydroxyethyl)-1-methyl-1H-imidazol-5-yl)phenoxy)benzyl)-8-(4-chlorobenzyl)-5-(methoxymethyl)-2,7,13,14-tetramethyl-1,4,7,11,14-pentaazacyclooctadecane-3,6,10,15,18-pentaone], the Max % inhibition is 81.26% and the IC50 stood at 1.8 nM.
The corresponding values for `COC[C@@H]1NC(=O)[C@H](C)N(Cc2c[nH]c(=O)cc2Oc2ccc(-c3cnc(CN(C)C)n3C)cc2)C(=O)C[C@@H](Cc2ccccc2)C(=O)N(C)[C@@H](C)CNC(=O)C[C@H](Cc2ccc(Cl)cc2)N(C)C1=O` [Compound 168, (2S,5S,8S,13S,16R)-16-benzyl-8-(4-chlorobenzyl)-1-((4-(4-(2-((dimethylamino)methyl)-1-methyl-1H-imidazol-5-yl)phenoxy)-6-oxo-1,6-dihydropyridin-3-yl)methyl)-5-(methoxymethyl)-2,7,13,14-tetramethyl-1,4,7,11,14-pentaazacyclooctadecane-3,6,10,15,18-pentaone] are 85.66% and 67.7 nM.
The corresponding values for `COC[C@@H]1NC(=O)[C@H](C)N(Cc2ccc(Cl)cc2Oc2ccc(-c3cnc(CN4CCCC4)n3C)cc2)C(=O)C[C@@H](Cc2ccccc2)C(=O)N(C)[C@@H](CCCCN)CNC(=O)C[C@H](Cc2ccc(Cl)cc2)N(C)C1=O.O=C(O)C(F)(F)F` [Compound 169, (2S,5S,8S,13S,16R)-13-(4-aminobutyl)-16-benzyl-1-(4-chloro-2-(4-(1-methyl-2-(pyrrolidin-1-ylmethyl)-1H-imidazol-5-yl)phenoxy)benzyl)-8-(4-chlorobenzyl)-5-(methoxymethyl)-2,7,14-trimethyl-1,4,7,11,14-pentaazacyclooctadecane-3,6,10,15,18-pentaone trifluoroacetate] are 91.73% and 1.3 nM.
The corresponding values for `C[C@H]1CNC(=O)C[C@H](Cc2ccc(Cl)cc2)N(C)C(=O)[C@H](COC(F)F)NC(=O)[C@H](C)N(Cc2ccc(Cl)cc2Oc2ccc(-c3cnc(CN(C)C)n3C)cc2)C(=O)C[C@@H](Cc2ccccc2)C(=O)N1C` [Compound 170, (2S,5S,8S,13S,16R)-16-benzyl-1-(4-chloro-2-(4-(2-((dimethylamino)methyl)-1-methyl-1H-imidazol-5-yl)phenoxy)benzyl)-8-(4-chlorobenzyl)-5-((difluoromethoxy)methyl)-2,7,13,14-tetramethyl-1,4,7,11,14-pentaazacyclooctadecane-3,6,10,15,18-pentaone] are 102.49% and 1.3 nM.
`COC[C@@H]1NC(=O)[C@H](C)N(Cc2ccc(Cl)cc2Oc2ccc(-c3cnc4n3CCN(C(=O)[C@@H]3CCOC3)C4)cc2)C(=O)C[C@@H](Cc2ccccc2)C(=O)N(C)[C@@H](C)CNC(=O)C[C@H](Cc2ccc(Cl)cc2)N(C)C1=O` [Compound 171, (2S,5S,8S,13S,16R)-16-benzyl-1-(4-chloro-2-(4-(7-((R)-tetrahydrofuran-3-carbonyl)-5,6,7,8-tetrahydroimidazo[1,2-a]pyrazin-3-yl)phenoxy)benzyl)-8-(4-chlorobenzyl)-5-(methoxymethyl)-2,7,13,14-tetramethyl-1,4,7,11,14-pentaazacyclooctadecane-3,6,10,15,18-pentaone]: the Max % inhibition is on record as 91.76% and the IC50 amounted to 3.1 nM.
The matching figures for `COC[C@@H]1NC(=O)[C@H](C)N(Cc2ccc(Cl)cc2Oc2ccc(-c3cnc(CN(C)C)n3C)cc2)C(=O)C[C@@H](Cc2cccc[n+]2[O-])C(=O)N(C)[C@H]2CCCC[C@@H]2NC(=O)C[C@H](Cc2ccc(Cl)cc2)N(C)C1=O` [Compound 172, 2-(((4S,7S,10S,14R,16aS,20aS)-11-(4-chloro-2-(4-(2-((dimethylamino)methyl)-1-methyl-1H-imidazol-5-yl)phenoxy)benzyl)-4-(4-chlorobenzyl)-7-(methoxymethyl)-5,10,16-trimethyl-2,6,9,12,15-pentaoxodocosahydrobenzo[l][1,4,7,11,14]pentaazacyclooctadecin-14-yl)methyl)pyridine 1-oxide]: 102.44% and 1.4 nM.
The matching figures for `CC[C@H]1C(=O)N[C@@H](COC)C(=O)N(C)[C@@H](Cc2ccc(Cl)cc2)CC(=O)NC[C@H](C)N(C)C(=O)[C@H](C)CC(=O)N1Cc1ccc(Cl)cc1Oc1ccc(-c2cnc(CN(C)C)n2C)cc1` [Compound 173, (2S,5S,8S,13S,16R)-1-(4-chloro-2-(4-(2-((dimethylamino)methyl)-1-methyl-1H-imidazol-5-yl)phenoxy)benzyl)-8-(4-chlorobenzyl)-2-ethyl-5-(methoxymethyl)-7,13,14,16-tetramethyl-1,4,7,11,14-pentaazacyclooctadecane-3,6,10,15,18-pentaone]: 84.80% and 73.3 nM.
